According to publication PMC7281429, “Chromenopyrimidinone Controls Stemness and Malignancy by suppressing CD133 Expression in Hepatocellular Carcinoma” (Cancers, 2020):
pEC50: −log10 of the molar value.

Molecular target: T1, topoisomerase I (Homo sapiens, UniProt P11387)
T1 construct: gene TOP1
T1 sequence (P11387 2-765): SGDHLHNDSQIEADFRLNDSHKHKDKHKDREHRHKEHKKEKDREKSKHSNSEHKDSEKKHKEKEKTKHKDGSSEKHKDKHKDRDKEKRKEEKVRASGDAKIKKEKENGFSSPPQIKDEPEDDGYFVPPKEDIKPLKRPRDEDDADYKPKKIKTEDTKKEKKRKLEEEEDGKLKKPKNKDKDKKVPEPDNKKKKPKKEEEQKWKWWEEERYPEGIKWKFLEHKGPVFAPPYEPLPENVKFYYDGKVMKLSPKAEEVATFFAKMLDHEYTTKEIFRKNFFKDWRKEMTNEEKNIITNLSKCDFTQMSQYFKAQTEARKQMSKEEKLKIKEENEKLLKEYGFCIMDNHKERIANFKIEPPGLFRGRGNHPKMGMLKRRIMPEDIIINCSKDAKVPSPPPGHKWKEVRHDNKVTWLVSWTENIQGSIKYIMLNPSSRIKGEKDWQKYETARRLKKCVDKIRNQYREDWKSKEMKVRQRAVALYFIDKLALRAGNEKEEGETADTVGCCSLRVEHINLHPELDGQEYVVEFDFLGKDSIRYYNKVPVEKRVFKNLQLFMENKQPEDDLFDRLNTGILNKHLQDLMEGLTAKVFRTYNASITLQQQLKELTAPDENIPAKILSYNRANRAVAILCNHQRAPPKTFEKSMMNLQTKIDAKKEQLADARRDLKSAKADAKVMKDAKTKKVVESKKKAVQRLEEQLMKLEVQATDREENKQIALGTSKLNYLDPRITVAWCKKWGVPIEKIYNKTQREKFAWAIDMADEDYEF
Experiment: plasmid DNA relaxation assay (supercoiled pBR322, agarose gel) with commercial human topoisomerase I
Format: biochemical

- pEC50: 5.44
SMILES: O=c1[nH]c(-c2ccc(O)cc2)nc2c1Cc1c(ccc3ccccc13)O2 [CPO, chromenopyrimidinone]
